Laboratory results from ChEMBL document CHEMBL2216752, “Carnitine palmitoyltransferase (CPT) modulators: a medicinal chemistry perspective on 35 years of research” (J Med Chem, 2011).
One block for each compound: values may come before it.

What was measured:
[1] = system: Rattus norvegicus; assay: Toxicity in rat assessed as induction of heart muscle enlargement at 200 mg/kg/day for 12 weeks administered through food admix; type: organism-based, Muscle tissue; settings: in vivo, 2016 h
[2] = system: Rattus norvegicus; assay: Inhibition of ketogenesis in 17 hrs fasted po dosed rat; type: functional
[3] = system: Mus musculus; assay: Reduction in glucose level in db/db mouse at 30 mg/kgl/day, po for 12 days; type: functional; set-up: scale not given: the % may be the effect or the level left; settings: dose 30 mg/kg
[4] = system: Mus musculus; assay: Reduction in body weight in C57BL/6J mouse at 250 pmol/day, icv for 4 days; type: functional; set-up: scale not given: the % may be the effect or the level left
[5] = system: Mus musculus; assay: Reduction in food intake in C57BL/6J mouse at 250 pmol/day, icv for 4 days; type: functional; set-up: scale not given: the % may be the effect or the level left
[6] = Inhibition of carnitine palmitoyltransferase in rat heart mitochondria assessed as conversion of [14C]palmitic acid to [14C]palmitoylcarnitine by radiometric assay
[7] = Inhibition of carnitine palmitoyltransferase in rat liver mitochondria assessed as conversion of [14C]palmitic acid to [14C]palmitoylcarnitine by radiometric assay
[8] = Inhibition of rat FAO
[9] = Inhibition of human FAO
[10] = target: T1, Carnitine O-palmitoyltransferase 2, mitochondrial (Homo sapiens, UniProt P23786); assay: Inhibition of human CPT2
T1 sequence (P23786 whole entry): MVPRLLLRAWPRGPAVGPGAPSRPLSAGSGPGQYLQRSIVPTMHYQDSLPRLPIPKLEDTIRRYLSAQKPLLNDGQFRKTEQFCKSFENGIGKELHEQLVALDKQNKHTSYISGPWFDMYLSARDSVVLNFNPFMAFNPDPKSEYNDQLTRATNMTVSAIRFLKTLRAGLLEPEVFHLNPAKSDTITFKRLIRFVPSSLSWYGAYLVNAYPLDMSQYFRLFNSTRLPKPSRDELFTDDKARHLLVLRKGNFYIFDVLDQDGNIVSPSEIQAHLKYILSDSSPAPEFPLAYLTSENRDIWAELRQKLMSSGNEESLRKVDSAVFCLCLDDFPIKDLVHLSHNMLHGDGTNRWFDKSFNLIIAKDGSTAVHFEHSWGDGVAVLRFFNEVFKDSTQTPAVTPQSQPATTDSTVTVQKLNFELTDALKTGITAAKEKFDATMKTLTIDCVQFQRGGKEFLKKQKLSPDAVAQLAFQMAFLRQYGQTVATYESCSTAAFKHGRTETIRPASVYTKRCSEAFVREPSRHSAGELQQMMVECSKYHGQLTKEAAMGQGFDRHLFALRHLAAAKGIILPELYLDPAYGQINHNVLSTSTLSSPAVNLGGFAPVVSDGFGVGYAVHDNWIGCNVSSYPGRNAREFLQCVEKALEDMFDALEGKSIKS

[11] = Critical micelle concentration of compound; type: physicochemical
[12] = target: T2, Carnitine O-palmitoyltransferase 1, muscle isoform (Homo sapiens, UniProt Q92523); assay: Inhibition of human CPT1B
T2 sequence (Q92523 whole entry): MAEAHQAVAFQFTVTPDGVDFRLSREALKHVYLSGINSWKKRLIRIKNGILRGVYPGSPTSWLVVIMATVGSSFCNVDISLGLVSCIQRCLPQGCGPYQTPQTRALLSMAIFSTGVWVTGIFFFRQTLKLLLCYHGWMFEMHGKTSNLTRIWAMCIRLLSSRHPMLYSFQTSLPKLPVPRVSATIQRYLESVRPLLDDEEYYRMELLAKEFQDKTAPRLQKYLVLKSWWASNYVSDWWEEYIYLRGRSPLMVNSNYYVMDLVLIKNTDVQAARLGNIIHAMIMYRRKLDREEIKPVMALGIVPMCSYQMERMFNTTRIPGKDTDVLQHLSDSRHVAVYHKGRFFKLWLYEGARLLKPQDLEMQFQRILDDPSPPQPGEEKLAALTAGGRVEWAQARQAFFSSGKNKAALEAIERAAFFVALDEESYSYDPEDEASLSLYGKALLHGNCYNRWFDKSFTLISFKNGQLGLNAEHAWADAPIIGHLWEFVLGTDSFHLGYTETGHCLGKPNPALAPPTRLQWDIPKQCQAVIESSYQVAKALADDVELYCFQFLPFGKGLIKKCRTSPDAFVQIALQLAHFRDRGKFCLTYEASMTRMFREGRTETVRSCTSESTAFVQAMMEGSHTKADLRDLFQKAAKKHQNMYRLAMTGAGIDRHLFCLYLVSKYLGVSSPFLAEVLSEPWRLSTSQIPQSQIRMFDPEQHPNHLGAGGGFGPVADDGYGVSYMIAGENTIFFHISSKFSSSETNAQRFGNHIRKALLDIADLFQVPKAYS

[13] = target: T3, Carnitine O-palmitoyltransferase 1, liver isoform (Homo sapiens, UniProt P50416); assay: Inhibition of human CPT1A
T3 sequence (P50416 whole entry): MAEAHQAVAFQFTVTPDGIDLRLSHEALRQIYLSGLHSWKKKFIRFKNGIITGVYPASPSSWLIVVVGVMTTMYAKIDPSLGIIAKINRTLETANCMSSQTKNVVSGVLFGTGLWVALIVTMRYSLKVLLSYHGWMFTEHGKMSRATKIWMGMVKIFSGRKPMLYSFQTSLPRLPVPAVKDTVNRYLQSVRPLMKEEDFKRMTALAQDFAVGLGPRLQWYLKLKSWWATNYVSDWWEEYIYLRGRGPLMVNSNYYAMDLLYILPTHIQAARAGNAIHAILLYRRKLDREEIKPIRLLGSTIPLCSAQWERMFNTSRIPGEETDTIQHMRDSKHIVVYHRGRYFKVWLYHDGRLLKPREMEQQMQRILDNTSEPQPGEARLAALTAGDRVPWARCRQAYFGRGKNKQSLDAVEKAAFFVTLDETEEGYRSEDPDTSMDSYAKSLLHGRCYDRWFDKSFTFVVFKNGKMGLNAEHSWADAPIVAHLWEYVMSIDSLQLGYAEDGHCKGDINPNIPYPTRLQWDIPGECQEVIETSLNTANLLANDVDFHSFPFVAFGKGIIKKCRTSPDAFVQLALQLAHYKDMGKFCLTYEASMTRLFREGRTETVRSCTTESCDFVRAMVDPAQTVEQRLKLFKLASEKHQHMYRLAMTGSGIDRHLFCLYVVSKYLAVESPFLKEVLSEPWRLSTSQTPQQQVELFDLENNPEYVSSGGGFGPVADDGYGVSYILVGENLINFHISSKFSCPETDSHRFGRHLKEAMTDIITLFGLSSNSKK

[14] = system: Rattus norvegicus; assay: Reduction in KB level po dosed 24 hrs fasted rat measured 6 hrs post dose; type: functional
[15] = system: Mus musculus; assay: Reduction in serum glucose level db/db mouse at 100 mg/kg/day for 30 days; type: functional; set-up: scale not given: the % may be the effect or the level left
[16] = Competitive inhibition of carnitine palmitoyltransferase using palmitoyl-CoA
[17] = target: Carnitine O-palmitoyltransferase 1, muscle isoform (Rattus norvegicus) (UniProt Q63704); assay: Maximal inhibition of CPT1B in rat muscle mitochondria; settings: Muscle tissue
[18] = target: Carnitine O-palmitoyltransferase 1, liver isoform (Rattus norvegicus) (UniProt P32198); assay: Maximal inhibition of CPT1A in rat liver mitochondria
[19] = system: Mus musculus; assay: Reduction in blood glucose level STZ-treated mouse at 1 mmol/kg, po measured 6 to 12 hrs post dose; type: functional; set-up: scale not given: the % may be the effect or the level left
[20] = system: Mus musculus; assay: Inhibition of [14C]palmitate oxidation to CO2 in mouse at 0.1 mmol/kg, ip; type: functional
[21] = Inhibition of carnitine palmitoyltransferase in fasted rat detergent lysed liver mitochondria by DTNB based spectrophotometric assay
[22] = system: Mus musculus; assay: Reduction in glucose level in db/db mouse at 80 mg/kgl/day, po for 12 days; type: functional; set-up: scale not given: the % may be the effect or the level left; settings: dose 80 mg/kg
[23] = system: Cynomolgus monkey; assay: Inhibition of ketogenesis in fasted po dosed cynomolgus monkey; type: functional; settings: Macaca fascicularis
[24] = system: Rattus norvegicus; assay: Reduction in glucose production in Sprague-Dawley rat at 5 to 25 pmol, icv administered as one or two single doses; type: functional; set-up: scale not given: the % may be the effect or the level left
[25] = system: Mus musculus; assay: Reduction in blood glucose level in db/db mouse at 50 mg/kg, po bid for 45 days; type: functional; set-up: scale not given: the % may be the effect or the level left
[26] = system: Mus musculus; assay: Increase in circulating FFA level in db/db mouse at 50 mg/kg, po bid for 45 days; type: functional
[27] = system: Mus musculus; assay: Increase in liver TG level in db/db mouse at 50 mg/kg, po bid for 45 days; type: functional
[28] = system: Mus musculus; assay: Reduction in water consumption in db/db mouse at 50 mg/kg, po bid for 45 days; type: functional; set-up: scale not given: the % may be the effect or the level left
[29] = system: Mus musculus; assay: Reduction in serum fructosamine level in db/db mouse at 50 mg/kg, po bid for 45 days; type: functional; set-up: scale not given: the % may be the effect or the level left
[30] = system: Mus musculus; assay: Reduction in liver glycogen level in db/db mouse at 50 mg/kg, po bid for 45 days; type: functional; set-up: scale not given: the % may be the effect or the level left
[31] = system: Mus musculus; assay: Reduction in serum glucose in db/db mouse at 50 mg/kg, po bid for 45 days; type: functional; set-up: scale not given: the % may be the effect or the level left
[32] = system: Homo sapiens; assay: Reduction in fasting insulin in NIDD patient at 450 mg/day, po for 15 days; type: functional; set-up: scale not given: the % may be the effect or the level left
[33] = system: Homo sapiens; assay: Reduction in HOMA index in NIDD patient at 450 mg/day, po for 15 days; type: functional; set-up: scale not given: the % may be the effect or the level left
[34] = Half life in NIDD patient at 150 to 450 mg/day, po for 15 days; type: ADME, organism-based; settings: human, in vivo
[35] = target: T4, Carnitine O-palmitoyltransferase 2, mitochondrial (Rattus norvegicus, UniProt P18886); assay: Inhibition of rat CPT2
T4 sequence (P18886 whole entry): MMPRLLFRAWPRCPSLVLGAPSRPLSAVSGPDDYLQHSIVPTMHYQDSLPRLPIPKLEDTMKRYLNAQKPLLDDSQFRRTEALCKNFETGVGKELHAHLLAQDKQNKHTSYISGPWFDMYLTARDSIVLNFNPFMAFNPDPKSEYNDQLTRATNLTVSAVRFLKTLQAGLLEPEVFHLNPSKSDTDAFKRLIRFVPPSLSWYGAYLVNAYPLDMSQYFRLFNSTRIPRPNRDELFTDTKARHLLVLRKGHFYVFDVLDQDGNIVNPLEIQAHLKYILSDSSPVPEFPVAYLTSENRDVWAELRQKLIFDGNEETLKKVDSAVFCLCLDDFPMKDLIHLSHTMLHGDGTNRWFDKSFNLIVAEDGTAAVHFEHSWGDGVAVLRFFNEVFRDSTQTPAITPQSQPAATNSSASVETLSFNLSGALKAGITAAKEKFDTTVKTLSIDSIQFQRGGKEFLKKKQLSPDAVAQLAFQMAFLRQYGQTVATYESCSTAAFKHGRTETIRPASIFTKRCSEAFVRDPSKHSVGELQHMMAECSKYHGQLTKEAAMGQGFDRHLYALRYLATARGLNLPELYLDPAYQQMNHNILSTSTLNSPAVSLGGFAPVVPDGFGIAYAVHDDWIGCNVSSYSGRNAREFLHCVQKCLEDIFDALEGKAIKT

Sequence of Carnitine O-palmitoyltransferase 1, liver isoform (Rattus norvegicus) (P32198 whole entry, looked up, canonical isoform): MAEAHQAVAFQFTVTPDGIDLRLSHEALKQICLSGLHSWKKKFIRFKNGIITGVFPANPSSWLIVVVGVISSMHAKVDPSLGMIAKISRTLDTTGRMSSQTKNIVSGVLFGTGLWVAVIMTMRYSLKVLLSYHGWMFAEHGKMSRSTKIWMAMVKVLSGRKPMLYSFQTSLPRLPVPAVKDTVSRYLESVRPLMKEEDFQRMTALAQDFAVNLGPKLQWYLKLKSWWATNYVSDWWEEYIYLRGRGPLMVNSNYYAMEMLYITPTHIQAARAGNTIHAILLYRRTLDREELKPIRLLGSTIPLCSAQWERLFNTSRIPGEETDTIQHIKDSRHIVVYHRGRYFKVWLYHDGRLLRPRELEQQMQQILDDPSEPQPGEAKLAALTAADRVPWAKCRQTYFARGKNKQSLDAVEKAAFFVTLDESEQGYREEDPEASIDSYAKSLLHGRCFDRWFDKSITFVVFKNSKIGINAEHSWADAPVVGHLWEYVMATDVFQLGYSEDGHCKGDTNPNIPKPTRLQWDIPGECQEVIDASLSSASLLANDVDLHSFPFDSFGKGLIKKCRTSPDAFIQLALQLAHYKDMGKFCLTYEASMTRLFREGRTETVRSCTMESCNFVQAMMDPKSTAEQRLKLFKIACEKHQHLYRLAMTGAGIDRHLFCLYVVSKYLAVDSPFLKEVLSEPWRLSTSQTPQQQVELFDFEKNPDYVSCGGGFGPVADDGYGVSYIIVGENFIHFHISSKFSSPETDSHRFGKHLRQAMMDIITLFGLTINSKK
Sequence of Carnitine O-palmitoyltransferase 1, muscle isoform (Rattus norvegicus) (Q63704 whole entry, canonical isoform): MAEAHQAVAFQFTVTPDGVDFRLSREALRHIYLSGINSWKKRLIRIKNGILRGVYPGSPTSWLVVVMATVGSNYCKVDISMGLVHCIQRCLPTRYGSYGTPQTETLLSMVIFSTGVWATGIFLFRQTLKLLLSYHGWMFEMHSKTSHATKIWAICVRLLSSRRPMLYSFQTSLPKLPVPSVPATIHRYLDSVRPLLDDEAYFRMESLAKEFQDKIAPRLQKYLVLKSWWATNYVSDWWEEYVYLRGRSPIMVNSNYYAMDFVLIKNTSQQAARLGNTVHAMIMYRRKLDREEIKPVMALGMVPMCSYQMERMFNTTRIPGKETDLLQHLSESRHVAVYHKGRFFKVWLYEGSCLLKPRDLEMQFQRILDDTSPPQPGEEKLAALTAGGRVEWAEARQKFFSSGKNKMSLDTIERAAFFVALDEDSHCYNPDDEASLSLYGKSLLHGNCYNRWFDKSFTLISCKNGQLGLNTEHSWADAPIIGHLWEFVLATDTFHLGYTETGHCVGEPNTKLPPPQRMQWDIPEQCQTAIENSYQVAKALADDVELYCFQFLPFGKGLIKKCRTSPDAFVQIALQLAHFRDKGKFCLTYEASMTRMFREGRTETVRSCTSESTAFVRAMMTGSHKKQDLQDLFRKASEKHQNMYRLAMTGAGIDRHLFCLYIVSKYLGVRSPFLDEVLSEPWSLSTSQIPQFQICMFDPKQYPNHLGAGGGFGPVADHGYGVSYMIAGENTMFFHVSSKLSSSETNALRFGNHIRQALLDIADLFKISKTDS

Compound: O=C([O-])[C@@]1(CCCCCc2ccc(Cl)cc2)CO1.[Na+] [CLOMIXIR]
Activity [1]: 15%

IC50 [6]: 5440 nM
IC50 [7]: 130 nM
IC50 [8]: 30 nM
IC50 [9]: 730 nM
IC50 [10]: 5400 nM
CMC [11]: 0.79 mM
IC50 [12]: 85300 nM
IC50 [13]: 1700 nM
Compound: CCCCCCOc1cccc(OCCCCNC(=O)N[C@H](CC(=O)[O-])C[N+](C)(C)C)c1
ED50 [2]: 3.7 mg/kg
Activity [3]: 41%
Activity [4]: 7%
Activity [5]: 25%

IC50 [6]: 3400 nM
IC50 [7]: 700 nM
Ki [16]: 250 nM
Compound: CCCCCCCCCCCCS(=O)(=O)N[C@H](CC(=O)[O-])C[N+](C)(C)C
ED50 [14]: 20 mg/kg
Activity [15]: 28%

Imax [17]: > 60 µM
Imax [18]: 5 µM
Compound: O=C(O)[C@@]1(CCCCCCOc2ccc([N+](=O)[O-])cc2[N+](=O)[O-])CO1

IC50 [21]: 50 nM
Compound: CCCCCCCCCCCCCCCC(=O)NC(CC(=O)[O-])C[N+](C)(C)C (racemic)
Activity [19]: 45%
inhibition in vivo at 100 µmol/kg [20]: 46%

IC50 [6]: 43400 nM
IC50 [7]: 1100 nM
IC50 [8]: 980 nM
IC50 [9]: 4000 nM
IC50 [10]: 160 nM
half-life [34]: 25 h
IC50 [35]: 380 nM
CMC [11]: 0.029 mM
Ki [16]: 360 nM
IC50 [12]: 5400 nM
IC50 [13]: 1050 nM
Compound: CCCCCCCCCCCCCCNC(=O)N[C@H](CC(=O)[O-])C[N+](C)(C)C
Activity [22]: 26%
ED50 [23]: 0.5 mg/kg
Activity [24]: 45%
Activity [25]: 39%
Activity [26]: 20%
Activity [27]: 38%
Activity [28]: 30%
Activity [29]: 30%
Activity [30]: 25%
Activity [31]: 25%
Activity [32]: 12%
Activity [33]: 25%
